From patent publication EP0639380B1, “Cyclodextrin inclusion product of taxol, process for producing the same, and its use” (Ensuiko Sugar Refining Company, Limited, priority 1993, dated 1995)
Like-named read-outs stand apart in the source and are kept apart here.

What was measured:
[1] = 70 min
Method: 098 g of hydroxyethyl-β-CD in which, of 21 hydroxyl groups contained in one β -CD molecule, an average of 1.6 groups are substituted through an ether bond with a hydroxyethyl group (hereinafter referred to as HE-β-CD) or 0.090 g of hydroxypropyl-β-CD in which, of 21 hydroxyl groups contained in one β -CD molecule, an average of 0.9 groups are substituted through an ether bond with a hydroxypropyl group (hereinafter referred to as HP-β -CD), and the volume of each solution was adjusted to 10 ml to prepare aqueous CD solutions of a concentration of 6 mM.
To the solutions were added 2 mg each of taxol, and the resulting mixtures were stirred at room temperature (20 to 25°C) at 5,000 r.p.m. As a control, 2 mg of taxol were added to 10 ml of water, and the resulting mixture was stirred at room temperature (20 to 25°C) at 5,000 r.p.m. After 70 minutes of stirring, the solutions were passed through a filter of a pore diameter of 0. 45µm, and the concentration of taxol contained in the filtrates was determined by highperformance liquid chromatography (HPLC).
Then, 20 mg of taxol were added to the aqueous DM-β-CD solution, 2 mgof taxol to the aqueous HP-β-CD solution, and 1 mg each of taxol to the other aqueous CD solutions, and the resulting mixtures were stirred at room temperature (20 to 25°C) at 5,000 r.p.m. As a control, 1 mg of taxol was added to 10 ml of water, and the resulting mixture was stirred at room temperature (20 to 25°C) at 5,000 r.p.m. After 70 minutes of stirring, the solutions were passed through a filter with a pore diameter of 0.45µm, and the concentration of taxol contained in the filtrates was determined.

[2] = format: physicochemical
Method: Into 70 ml of a mixture of methanol and water (volume ratio, 1:1), the same volume of a mixture of acetonitrile and water (volume ratio, 1: 1), the same volume of a mixture of acetone and water (volume ratio, 1: 1) and the same volume of mixture of tetrahydrofuran and water (volume ratio, 1:1) were added 5 mg each of taxol. To the resulting taxol solutions were added 500 mg each of DM-β-CD, and the resulting mixtures were stirred vigorously by a stirrer at a temperature of 25°C. After two hours of stirring, 100 ml each of water were added thereto, and the resulting solutions were freeze-dried, so as to obtain powders by completely removing the water and the organic solvents. Then, 8 mg each of the thus-obtained powders were dissolved into 1 ml of water while stirring, and the resulting solutions were passed through a filter with a pore size of 0. 45µm, and the concentration of DM-β-CD and of the taxol contained in the filtrates was determined by HPLC. […]
Two taxol solutions were prepared by dissolving 5 mg each of taxol into 100 ml each of mixtures of methanol and water (volume ratio, 1:1). To these solutions were added 50 mg of HE-β-CD or HP-β-CD, and the resulting mixtures were vigorously stirred using a stirrer at 25°C. […]

Solubility of Taxol [1] [µ g/ml]	Solubilty of Taxol [1] [µ g/ml]	Solubility of Taxol [2] [µ g/ml]	Molecule
1.1	68.9	6.1	hydroxypropyl-β-CD [HP-β-CD]
47.1	1236	–	2, 6-di-O-methyl- β -CD [DM-β-CD]
0.5	22.2	1.3	hydroxyethyl-β-CD [HE-β-CD]
0.5	23.0	–	6-mono-O-maltosyl-β-CD [G2-β-CD]
0	–	–	CC(=O)O[C@H]1C(=O)[C@@]2(C)[C@H]([C@H](OC(=O)c3ccccc3)[C@]3(O)C[C@H](OC(=O)[C@H](O)[C@@H](NC(=O)c4ccccc4)c4ccccc4)C(C)=C1C3(C)C)[C@]1(OC(C)=O)CO[C@@H]1C[C@@H]2O [CD not added (Control), taxol]
